Test results: PubChem BioAssay (NCI)
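Five concentrations, 48 hours, 96-well plates. GI50 marks 50% less growth. TGI: concentration producing complete growth inhibition.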

Legend:
Assay in all cases: NCI tumour cell line growth inhibition, 48 h
MDA-MB-435 = system: MDA-MB-435
M14 melanoma = system: M14 melanoma
HS 578T breast = system: HS 578T breast
TK-10 renal = system: TK-10 renal
SR leukemia = system: SR leukemia
PC-3 prostate = system: PC-3 prostate
DU-145 prostate = system: DU-145 prostate
T-47D breast = system: T-47D breast
MDA-N = system: MDA-N
LXFL 529 NSCLC = system: LXFL 529 NSCLC
KM20L2 colon = system: KM20L2 colon
XF 498 CNS = system: XF 498 CNS
P388/ADR leukemia = system: P388/ADR leukemia
M19-MEL melanoma = system: M19-MEL melanoma
SN12K1 renal = system: SN12K1 renal
P388 leukemia = system: P388 leukemia

Q: How did the TGI (MDA-MB-435) turn out when `C=CC1OC(CCCOC(=O)C(C)(C)C)O[C@@H]1CC` (some centres undefined) was run?
A: > 100 µM

Q: What about the TGI (M14 melanoma) of the same compound?
A: > 100 µM

Q: And the TGI (HS 578T breast)?
A: > 100 µM

Q: And the TGI (TK-10 renal)?
A: > 100 µM

Q: And the TGI (SR leukemia)?
A: > 100 µM

Q: What about the TGI (PC-3 prostate) of the same compound?
A: > 100 µM

Q: What about the TGI (DU-145 prostate) of the same compound?
A: > 100 µM

Q: What about the TGI (T-47D breast) of the same compound?
A: > 100 µM

Q: What about the TGI (MDA-N) of the same compound?
A: > 100 µM

Q: For `C=C(C)C1Cc2c(cc(O)c3c(=O)c4ccccc4n(C)c23)O1` (centres undefined), which TGI (M14 melanoma) is on record?
A: 90.4 µM

Q: What about the TGI (TK-10 renal) of the same compound?
A: 34.8 µM

Q: And the TGI (SR leukemia)?
A: > 100 µM

Q: What about the TGI (LXFL 529 NSCLC) of the same compound?
A: > 100 µM

Q: And the TGI (KM20L2 colon)?
A: > 100 µM

Q: And the TGI (XF 498 CNS)?
A: 41.8 µM

Q: For `C/C=C(/C)C(=O)O[C@@H]1c2c(C)coc2C[C@H]2CC[C@H](O)[C@H](C)[C@]21C`, which TGI (MDA-MB-435) is on record?
A: > 100 µM

Q: And the TGI (M14 melanoma)?
A: > 100 µM

Q: What about the TGI (HS 578T breast) of the same compound?
A: > 100 µM

Q: And the TGI (TK-10 renal)?
A: > 100 µM

Q: What about the TGI (SR leukemia) of the same compound?
A: > 100 µM

Q: And the TGI (PC-3 prostate)?
A: > 100 µM

Q: And the TGI (DU-145 prostate)?
A: > 100 µM

Q: What about the TGI (T-47D breast) of the same compound?
A: > 100 µM

Q: And the TGI (MDA-N)?
A: > 100 µM

Q: With `O=[N+]([O-])c1ccc(/C=C/c2ccc(N=Nc3ccc(/C=C/c4ccc([N+](=O)[O-])cc4S(=O)(=O)O)c(S(=O)(=O)O)c3)cc2S(=O)(=O)O)c(S(=O)(=O)O)c1` as the compound, how does the TGI (P388/ADR leukemia) read?
A: > 100 µM

Q: What about the TGI (M19-MEL melanoma) of the same compound?
A: > 100 µM

Q: And the TGI (SN12K1 renal)?
A: > 100 µM

Q: And the TGI (XF 498 CNS)?
A: > 100 µM

Q: What about the TGI (P388 leukemia) of the same compound?
A: > 100 µM

Q: With `O=C(O)Cc1ccc(N2N=C(c3ccccc3)CC2=O)cc1` as the compound, how does the TGI (M14 melanoma) read?
A: > 100 µM

Q: What about the TGI (HS 578T breast) of the same compound?
A: > 100 µM

Q: What about the TGI (TK-10 renal) of the same compound?
A: > 100 µM

Q: And the TGI (SR leukemia)?
A: > 100 µM

Q: What about the TGI (PC-3 prostate) of the same compound?
A: > 100 µM

Q: And the TGI (DU-145 prostate)?
A: > 100 µM

Q: And the TGI (T-47D breast)?
A: > 100 µM

Q: And the TGI (MDA-N)?
A: > 100 µM

Q: With `COc1ccc(/C(Cl)=C(\C=O)c2ccc(F)cc2)cc1` as the compound, how does the TGI (M14 melanoma) read?
A: > 100 µM

Q: What about the TGI (M19-MEL melanoma) of the same compound?
A: 79.4 µM

Q: And the TGI (TK-10 renal)?
A: > 100 µM

Q: And the TGI (LXFL 529 NSCLC)?
A: 61.6 µM

Q: What about the TGI (KM20L2 colon) of the same compound?
A: 20.5 µM

Q: For `[Cl-].[Rh+3].c1ccc(-c2ccnc3c2ccc2c(-c4ccccc4)ccnc23)cc1.c1ccc(-c2ccnc3c2ccc2c(-c4ccccc4)ccnc23)cc1.c1ccc(-c2ccnc3c2ccc2c(-c4ccccc4)ccnc23)cc1`, which GI50 (P388/ADR leukemia) is on record?
A: 23.7 µM

Q: What about the TGI (P388/ADR leukemia) of the same compound?
A: > 100 µM

Q: And the TGI (M19-MEL melanoma)?
A: > 86.2 µM

Q: What about the GI50 (SN12K1 renal) of the same compound?
A: 29.7 µM

Q: And the TGI (SN12K1 renal)?
A: > 87.2 µM

Q: And the TGI (KM20L2 colon)?
A: > 100 µM

Q: And the GI50 (XF 498 CNS)?
A: 23.1 µM

Q: And the TGI (XF 498 CNS)?
A: 89.3 µM

Q: What about the GI50 (P388 leukemia) of the same compound?
A: 24.7 µM

Q: What about the TGI (P388 leukemia) of the same compound?
A: > 71 µM

Q: How did the TGI (P388/ADR leukemia) turn out when `CN(C)CCNCc1c2ccccc2c(CNCCN(C)C)c2ccccc12` was run?
A: > 100 µM

Q: And the TGI (M19-MEL melanoma)?
A: > 57.1 µM

Q: And the TGI (SN12K1 renal)?
A: 67.6 µM

Q: What about the TGI (KM20L2 colon) of the same compound?
A: 26 µM

Q: What about the TGI (XF 498 CNS) of the same compound?
A: > 100 µM

Q: What about the TGI (P388 leukemia) of the same compound?
A: > 56.2 µM

Q: Which TGI (P388/ADR leukemia) does the source give for `COC(=O)[C@@H]1c2cc3c(c(O)c2[C@@H](OC)C[C@@]1(C)O)C(=O)c1c(O)cc2c(c1C3=O)OC1O[C@@]2(C)[C@H](O)[C@@H](N(C)C)[C@@H]1O` here?
A: 15 µM

Q: And the TGI (M19-MEL melanoma)?
A: 0.88 µM

Q: And the TGI (SN12K1 renal)?
A: 1.41 µM

Q: And the TGI (KM20L2 colon)?
A: 0.794 µM

Q: And the TGI (XF 498 CNS)?
A: 0.66 µM

Q: What about the TGI (P388 leukemia) of the same compound?
A: 2.36 µM
